Consider one molecule from patent US12605423B2, “Peptide inhibitors targeting methyltransfer mechanism of SARS-CoV-2” (United Arab Emirates University, priority 2021, dated 2026).

“Also recorded” adds a separate entry of the source.

One experiment has as its system IL-6. It counts as cell-based. The conditions noted are these: NCIH1792 (H1792) human lung cells, 10 μM peptide, versus PBS control.

With `CSCC[C@H](NC(=O)[C@H](Cc1ccccc1)NC(=O)CNC(=O)[C@H](CO)NC(=O)CNC(=O)[C@H](CCCNC(=N)N)NC(=O)[C@H](CCCNC(=N)N)NC(=O)[C@H](CCCNC(=N)N)NC(=O)[C@H](CCC(N)=O)NC(=O)[C@H](CCCNC(=N)N)NC(=O)[C@H](CCCNC(=N)N)NC(=O)[C@H](CCCCN)NC(=O)[C@H](CCCCN)NC(=O)[C@H](CCCNC(=N)N)NC(=O)CNC(=O)[C@H](Cc1ccc(O)cc1)NC(C)=O)C(=O)N[C@@H](CC(=O)O)C(=O)N[C@@H](CC(C)C)C(=O)N[C@@H](CCCCN)C(=O)NCC(=O)N[C@@H](CCCCN)C(=O)N[C@@H](Cc1ccc(O)cc1)C(N)=O` [Peptide P3, FMDLKGKY], in the experiment with IL-6, the “IL-6 induction” value was “not P2 nor P3; also recorded: does not stimulate IL-6”. In the experiment on SARS-CoV-2, this molecule showed a 90% Effective Concentration (EC90) of 3.3 µM and a 90% effect concentration (EC90) of 3.3 µM.

As a reminder, the EC90 is the concentration needed for an effect of 90%. Low readings indicate an effect from little substance, high ones a need for much substance.
